In patent US20200121605A1, “METHODS AND COMPOSITIONS FOR LOCALIZED INTRADUCTAL DRUG DELIVERY TO THE BREAST AND REGIONAL LYMPH NODES” (South Dakota Board of Regents, priority 2018, published 2020):

Key:
[1] = design: species or system rats; conditions: rat, in vivo
Description: (§1) For In vivo studies, the levels of 4-hydroxytamoxifen and endoxifen were measured using LC-MS.
(§2) The tissues were mixed with TRIS HCl buffer (1 ml/mg) and homogenized at 6000 rpm for 3 minutes under ice. For lymph nodes, sonication (45% amplitude in pulse mode 1 sec on and 1 sec off for 2 minutes under ice) was used to homogenize the tissue. From this, 200 μl of tissue homogenate was mixed with 800 μl of acetonitrile to precipitate proteins (1:4 v/v). This was then vortexed for 1-2 minutes followed by sonication for 3 minutes. The plasma was then centrifuged at 10,000 rpm at 4° C. for 10 minutes. The supernatant was collected and evaporated to dryness under gentle stream of Argon. The residue was then reconstituted with 100 μl of Ammonium Formate, pH 3.5: Acetonitrile (7:3 v/v). This was vortexed for 1 minute followed by sonication for 2 minutes. The reconstituted mixture was centrifuged at 10,000 rpm for 10 minutes at 4° C. The supernatant was collected and 15 μl was injected into LC-MS to determine drug levels.

[2] = rat, in vivo
Description: as §1, §2

[3] = Organ distribution of tamoxifen PLGA formulations; assay type: in vivo; conditions: end of the treatment
Description: (§3) For In vivo studies, the levels of Tamoxifen and two major metabolites 4-hydroxytamoxifen (4HT) and endoxifen (EDX) were measured using LC-MS. (Liquid chromatography-Mass spectroscopy)
(§4) The mammary gland and all the other vital organs (liver, spleen, kidney, lungs, heart, and uterus) were weighed and washed with PBS to remove blood. The tissues were mixed with TRIS HCl buffer (1 ml/mg) and homogenized at 6000 rpm for 3 minutes under ice. For lymph nodes, sonication (45% amplitude in pulse mode 1 sec on and 1 sec off for 2 minutes under ice) was used for homogenization. From this, 200 μl of tissue homogenate was mixed with 800 μl of acetonitrile (1:4 v/v) for protein precipitation. This was vortexed for 1-2 minutes followed by sonication for 3 minutes. The homogenate was centrifuged at 10,000 rpm at 4° C. for 10 minutes. The supernatant was collected and evaporated to dryness under gentle stream of Argon. The residue was reconstituted with 100 μl of ammonium formate (pH 3.5): acetonitrile (7:3 v/v). This was vortexed for 1 minute followed by sonication for 2 minutes. The reconstituted mixture was centrifuged at 10,000 rpm for 10 minutes at 4° C. The supernatant was gently removed and 15 μl was injected into LC-MS for quantification.

[4] = Plasma levels of tamoxifen and metabolites after intraductal injection of tamoxifen formulations (LC-MS); assay type: in vivo
Description: as §3
For determining drug levels in plasma, 100 μl of plasma was mixed with 400 μl of acetonitrile to precipitate proteins (1:4 v/v). This was then vortexed for 1-2 minutes followed by sonication for 3 minutes. The plasma was then centrifuged at 10,000 rpm at 4° C. for 10 minutes. The supernatant was collected and evaporated to dryness under gentle stream of Argon. The residue was then reconstituted with 100 μl of ammonium formate, (pH 3.5): acetonitrile (7:3 v/v). This was vortexed for 1 minute followed by sonication for 2 minutes. The reconstituted mixture was centrifuged at 10,000 rpm for 10 minutes at 4° C. The supernatant was collected and 15 μl was injected into LC-MS to determine drug levels.

[5] = Breast (mammary gland) concentration of tamoxifen and 4-hydroxytamoxifen after intraductal injection; assay type: in vivo
Description: as §3, §4

[6] = Imaging of regional (axillary) lymph nodes after intraductal injection; assay type: in vivo, female Sprague Dawley rats
Description: Intraductal injection was performed following the method described in the previous section. Regional lymph nodes (Axillary lymph node) were identified and dissected at 2 hours, 24 hours and 48 hours after intraductal injection. The lymph nodes were then imaged using whole body animal imaging system to determine the localization of formulation in the lymph nodes.

[7] = Intraductal retention of Cy5.5 labelled PLGA formulations, whole body imaging; assay type: in vivo, Female SD rats
Description: Female SD rats were anesthetized using isoflurane and the hair around the nipple region was removed using hair removing cream. The keratin plug from the inguinal mammary gland (5th or 6th nipple from the head) was removed gently holding the nipple using tweezers and wiping with 70% alcohol.
For microspheres and nanoparticles, around 0.5 to 1.5 mg particles was dispersed in PBS containing 0.5% w/v Tween 80 and vortexed for 30-60 seconds. For In situ implants, 50-100 μl of gel containing an equivalent amount of Cy5.5 was used. After dilation of the nipple orifice, 50-100 μl of the formulation was injected intraductally into the inguinal mammary glands using 27-31 G needle under a surgical microscope.
The animals were imaged using Bruker in Vivo Xtreme II optical imaging system at predetermined time points (0 to 96 hours) to study the distribution of the carrier system in the breast. Following instrument settings were used: Excitation/Emission: 690/750 nm; Bin: 1×1 pixels; Exposure time: 20 seconds, f-stop: 1.2, FOV: 19. Fluorescence intensities were plotted against time by choosing a constant ROI around the injected mammary gland and subtracting the fluorescence intensity from the contralateral mammary gland.

[8] = breast (mammary gland), tamoxifen in breast
[9] = intraductal retention, Cy 5.5 fluorescence intensity profile, 0 to 96 hours

**Q.** For “4-hydroxytamoxifen [Free 4-hydroxy tamoxifen]”, which “4 hydroxy tamoxifen in the tissues” value [1] is on record?
**A.** undetectable

**Q.** And the “systemic exposure of endoxifen in all the tissues” value [1]?
**A.** higher systemic exposure

**Q.** And the “retention in the mammary gland, in words” value [2]?
**A.** very low levels

**Q.** For `CC/C(=C(\c1ccccc1)c1ccc(OCCN(C)C)cc1)c1ccccc1` [Free TMX, tamoxifen], which “uterine exposure of tamoxifen and metabolites” value [3] is on record?
**A.** resulted in uterine exposure

**Q.** And the “duration of detectable plasma tamoxifen” value [4]?
**A.** 3 days

**Q.** What about the AUC ([4]; Tamoxifen in plasma) of the same compound?
**A.** 116 ± 43.3 ng·h/mL

**Q.** And the AUMC ([4]; Tamoxifen in plasma)?
**A.** 4546.37 ± 466.103 ng · hr^2/ml

**Q.** And the Cmax ([4]; Tamoxifen in plasma)?
**A.** 8.9 ± 1.55 ng/mL

**Q.** And the MRT ([4]; Tamoxifen in plasma)?
**A.** 47.7 ± 3.15 h

**Q.** And the Tmax ([4]; Tamoxifen in plasma)?
**A.** 0.3 h

**Q.** What about the half-life ([4]; Tamoxifen in plasma) of the same compound?
**A.** 19.5 ± 4.24 h

**Q.** And the ke ([4]; Tamoxifen in plasma)?
**A.** 0.015 ± 0.002 h⁻¹

**Q.** And the “not retained in the mammary glands after” value [5]?
**A.** 3 days

**Q.** And the “retained in the mammary gland for only” value [5]?
**A.** 72 h

**Q.** What about the AUC [5, 8] of the same compound?
**A.** 125000 ± 3690 ng·h/mL

**Q.** What about the Cmax [5, 8] of the same compound?
**A.** 4370 ± 67.7 ng/mL

**Q.** And the MRT [5, 8]?
**A.** 26.5 ± 4.3 h

**Q.** What about the Tmax [5, 8] of the same compound?
**A.** 12 h

**Q.** And the half-life [5, 8]?
**A.** 14.87 ± 0.04 h

**Q.** And the ke ([5]; tamoxifen in breast)?
**A.** 0.020 ± 0.0005

**Q.** With Cy 5.5 as the compound, how does the “localization (fluorescence) in the axillary lymph nodes up to” value [6] read?
**A.** ≤ 1 h

**Q.** What about the “no fluorescence signals recorded after” value ([7]; breast ducts, non-invasive imaging) of the same compound?
**A.** 4 h

**Q.** What about the k [7, 9] of the same compound?
**A.** 0.40 ± 0.03 h⁻¹

**Q.** What about the “t1/2 (retention half-life)” value [7, 9] of the same compound?
**A.** 1.70 ± 0.16 h
